25 molecules from US10875876B2, “Cyclized sulfamoylarylamide derivatives and the use thereof as medicaments for the treatment of hepatitis B” (priority 2015, dated 2020) can be followed below.

One data set deals with HBV. In words: anti HBV activity, HepG2.117 cell line, intracellular HBV DNA by realtime PCR. Type of data set: cell-based. The settings on record: Hepatitis B virus, HepG2.117, 72 h, HepG2.117 cell line (Tet-off), 3 days of treatment, intracellular HBV DNA quantified by realtime PCR; read-out: HBV-AVE-HepG2.117 EC50. Summed up: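 HepG2.117 cells, a Tet-off line that replicates HBV without doxycycline, were induced and then treated in duplicate with serially diluted compound. After 3 days, intracellular HBV DNA was quantified by real-time PCR with an HBV-specific primer set and probe.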

The nature of data set [1]: Cytotoxicity in HepG2 cells, Resazurin assay. The settings on record: human, HepG2 cells, TOX-HepG2-4 d CC50 (μM), HepG2 cells incubated for 4 days, viability by Resazurin assay. (In general: Alamar Blue is a resazurin reagent that responds to reducing activity.)

One may read the EC50 as the concentration at which the effect is half-maximal. By CC50 is commonly meant the concentration that lowers cell viability or growth by half. As to `Cn1cc2c(c1C(=O)Nc1cc(F)c(F)c(F)c1)CCC1(COC1)NS2(=O)=O` [Compound 136, 7-methyl-1,1-dioxo-N-(3,4,5-trifluorophenyl)spiro[4,5-dihydro-2H-pyrrolo[3,4-f]thiazepine-3,3′-oxetane]-6-carboxamide], the concentration giving a half-maximal response (EC50) with HBV turned out to be 0.016 µM. The same molecule showed a CC50 at 4 days in data set [1] above 25 µM.
With `Cn1cc2c(c1C(=O)Nc1ccc(F)c(C(F)F)c1)CCC1(COC1)NS2(=O)=O` [Compound 137, N-[3-(difluoromethyl)-4-fluoro-phenyl]-7-methyl-1,1-dioxo-spiro[4,5-dihydro-2H-pyrrolo[3,4-f]thiazepine-3,3′-oxetane]-6-carboxamide], the 50% effective concentration (EC50) in the data set with HBV is 0.006 µM. In data set [1], this molecule registered a half-maximal cytotoxic concentration (CC50) at 4 days above 25 µM.
Regarding `Cn1cc2c(c1C(=O)Nc1ccc(F)c(C#N)c1)CCC1(COC1)NS2(=O)=O` [Compound 138, N-(3-cyano-4-fluoro-phenyl)-7-methyl-1,1-dioxo-spiro[4,5-dihydro-2H-pyrrolo[3,4-f]thiazepine-3,3′-oxetane]-6-carboxamide], the EC50 in the data set on HBV is 0.029 µM. The same molecule yielded a cytotoxic concentration (CC50) at 4 days in data set [1] above 25 µM.
Take `Cn1cc2c(c1C(=O)Nc1ccc(F)c(C(F)F)c1)C=CC1(COC1)NS2(=O)=O` [Compound 139, N-[3-(difluoromethyl)-4-fluoro-phenyl]-7-methyl-1,1-dioxo-spiro[2H-pyrrolo[3,4-f]thiazepine-3,3′-oxetane]-6-carboxamide]: the 50% effective concentration (EC50) with HBV was determined as 0.016 µM. Also, in data set [1], the half-maximal cytotoxic concentration (CC50) at 4 days was above 25 µM.
Turning to `Cn1cc2c(c1C(=O)Nc1ccc(F)c(C#N)c1)C=CC1(COC1)NS2(=O)=O` [Compound 140, N-(3-cyano-4-fluoro-phenyl)-7-methyl-1,1-dioxo-spiro[2H-pyrrolo-[3,4-f]thiazepine-3,3′-oxetane]-6-carboxamide], in the data set on HBV, the EC50 amounted to 0.062 µM. Further, the CC50 at 4 days in data set [1] was above 25 µM.
Regarding `Cn1cc2c(c1C(=O)Nc1ccc(F)c(F)c1)OCC(C(O)c1ccccn1)NS2(=O)=O` (centres unmarked) [Compound 141a, N-(3,4-difluorophenyl)-3-[hydroxy(2-pyridyl)methyl]-7-methyl-1,1-dioxo-3,4-dihydro-2H-pyrrolo[3,4-b][1,4,5]oxathiazepine-6-carboxamide], the EC50 with HBV worked out at 0.03 µM. In addition, the CC50 at 4 days in data set [1] is above 25 µM.
`Cn1cc2c(c1C(=O)Nc1cc(F)c(F)c(F)c1)C=CC1(COC1)NS2(=O)=O` [Compound 143, 7-methyl-1,1-dioxo-N-(3,4,5-trifluorophenyl)spiro[2H-pyrrolo[3,4-f]thiazepine-3,3′-oxetane]-6-carboxamide]: the EC50 in the data set with HBV is 0.024 µM. Further, in data set [1], the cytotoxic concentration (CC50) at 4 days is above 25 µM.
For `Cn1cc2c(c1C(=O)Nc1cc(F)c(F)c(F)c1)OC[C@H](C(C)(C)O)NS2(=O)=O` [Compound 147, (3R)-3-(1-hydroxy-1-methyl-ethyl)-7-methyl-1,1-dioxo-N-(3,4,5-trifluorophenyl)-3,4-dihydro-2H-pyrrolo[3,4-b][1,4,5]oxathiazepine-6-carboxamide], the EC50 in the data set with HBV was found to be 0.013 µM. Moreover, in data set [1], the 50% cytotoxic concentration (CC50) at 4 days is above 25 µM.
`Cn1cc2c(c1C(=O)Nc1ccnc(C(F)F)c1)OC[C@H](C(C)(C)O)NS2(=O)=O` [Compound 151, (3R)—N-[2-(difluoromethyl)-4-pyridyl]-3-(1-hydroxy-1-methyl-ethyl)-7-methyl-1,1-dioxo-3,4-dihydro-2H-pyrrolo[3,4-b][1,4,5]oxathiazepine-6-carboxamide]: the EC50 with HBV is 0.076 µM. In data set [1], this molecule returned a half-maximal cytotoxic concentration (CC50) at 4 days above 25 µM.
Consider `Cc1c2c(c(C(=O)Nc3ccc(F)c(F)c3)n1C)CC[C@H](C)NS2(=O)=O` [Compound 152, (3S)—N-(3,4-difluorophenyl)-3,7,8-trimethyl-1,1-dioxo-2,3,4,5-tetrahydropyrrolo[3,4-f]thiazepine-6-carboxamide], for which the concentration giving a half-maximal response (EC50) in the data set with HBV came out at 0.014 µM. The 50% cytotoxic concentration (CC50) at 4 days in data set [1] was above 25 µM.
Regarding `Cn1cc2c(c1C(=O)Nc1ccc(F)c(F)c1)OC[C@@](C)(Cc1ccccc1)NS2(=O)=O` [Compound 154, (3R)-3-benzyl-N-(3,4-difluorophenyl)-3,7-dimethyl-1,1-dioxo-2,4-dihydropyrrolo[3,4-b][1,4,5]oxathiazepine-6-carboxamide], in the data set with HBV, the EC50 turned out to be 0.008 µM. In data set [1], this molecule gave a CC50 at 4 days above 25 µM.
On to `Cn1cc2c(c1C(=O)Nc1ccc(F)c(F)c1)OC[C@](C)(Cc1ccccc1)NS2(=O)=O` [Compound 155, (3S)-3-benzyl-N-(3,4-difluorophenyl)-3,7-dimethyl-1,1-dioxo-2,4-dihydropyrrolo[3,4-b][1,4,5]oxathiazepine-6-carboxamide], for which, in the data set with HBV, the EC50 was found to be 0.025 µM. Besides, in data set [1], the CC50 at 4 days was above 25 µM.
Take `Cn1cc2c(c1C(=O)Nc1ccc(F)c(C#N)c1)OC[C@](C)(Cc1ccccc1)NS2(=O)=O` [Compound 156, (3S)-3-benzyl-N-(3-cyano-4-fluoro-phenyl)-3,7-dimethyl-1,1-dioxo-2,4-dihydropyrrolo[3,4-b][1,4,5]oxathiazepine-6-carboxamide]: the EC50 with HBV is 0.009 µM. In data set [1], the 50% cytotoxic concentration (CC50) at 4 days is above 25 µM.
In the case of `C[C@H](O)[C@H]1CCc2c(cn(C)c2C(=O)Nc2ccc(F)c(C#N)c2F)S(=O)(=O)N1` [Compound 159, (3R)—N-(3-cyano-2,4-difluoro-phenyl)-3-[(1S)-1-hydroxyethyl]-7-methyl-1,1-dioxo-2,3,4,5-tetrahydropyrrolo[3,4-f]thiazepine-6-carboxamide], in the data set on HBV, the 50% effective concentration (EC50) was 0.014 µM. This molecule also returned a half-maximal cytotoxic concentration (CC50) at 4 days in data set [1] above 25 µM.
Take `C[C@H]1CCc2c(cn(C)c2C(=O)Nc2ccnc(C(F)F)c2)S(=O)(=O)N1` [Compound 165, (3S)—N-[2-(difluoromethyl)-4-pyridyl]-3,7-dimethyl-1,1-dioxo-2,3,4,5-tetrahydropyrrolo[3,4-f]thiazepine-6-carboxamide]: in the data set with HBV, the concentration for a half-maximal effect (EC50) was found to be 0.068 µM. In addition, in data set [1], the 50% cytotoxic concentration (CC50) at 4 days is above 25 µM.
As to `C[C@H]1CCc2c(cn(C)c2C(=O)Nc2ccnc(Cl)c2)S(=O)(=O)N1` [Compound 166, (3S)—N-(2-chloro-4-pyridyl)-3,7-dimethyl-1,1-dioxo-2,3,4,5-tetrahydropyrrolo[3,4-f]thiazepine-6-carboxamide], the EC50 with HBV turned out to be 0.056 µM. The CC50 at 4 days in data set [1] was above 25 µM.
Take `C[C@H](O)[C@H]1C=Cc2c(cn(C)c2C(=O)Nc2ccc(F)c(C#N)c2F)S(=O)(=O)N1` [Compound 178, (3R)—N-(3-cyano-2,4-difluoro-phenyl)-3-[(1S)-1-hydroxyethyl]-7-methyl-1,1-dioxo-2,3-dihydropyrrolo[3,4-f]thiazepine-6-carboxamide]: the EC50 with HBV stood at 0.016 µM. In addition, in data set [1], the half-maximal cytotoxic concentration (CC50) at 4 days is above 25 µM.
For `Cn1cc2c(c1C(=O)Nc1ccc(F)c(F)c1)OCC(C(O)c1ccncc1)NS2(=O)=O` (centres unmarked) [Compound 183, N-(3,4-difluorophenyl)-3-[hydroxy(4-pyridyl)methyl]-7-methyl-1,1-dioxo-3,4-dihydro-2H-pyrrolo[3,4-b][1,4,5]oxathiazepine-6-carboxamide], the concentration giving a half-maximal response (EC50) with HBV is 0.002 µM. This molecule also registered a CC50 at 4 days in data set [1] above 25 µM.
On to `Cn1cc2c(c1C(=O)Nc1ccc(F)c(C(F)F)c1)CC[C@H](CO)NS2(=O)=O` [Compound 184, (3R)—N-[3-(difluoromethyl)-4-fluoro-phenyl]-3-(hydroxymethyl)-7-methyl-1,1-dioxo-2,3,4,5-tetrahydropyrrolo[3,4-f]thiazepine-6-carboxamide], for which, in the data set with HBV, the EC50 came to 0.02 µM. The CC50 at 4 days in data set [1] was above 25 µM.
For `Cn1cc2c(c1C(=O)Nc1ccc(F)c(C#N)c1F)CCC(C(C)(C)O)NS2(=O)=O` (centres unmarked) [Compound 185, N-(3-cyano-2,4-difluoro-phenyl)-3-(1-hydroxy-1-methyl-ethyl)-7-methyl-1,1-dioxo-2,3,4,5-tetrahydropyrrolo[3,4-f]thiazepine-6-carboxamide], in the data set on HBV, the half-maximal effective concentration (EC50) is 0.041 µM. This molecule yielded a CC50 at 4 days in data set [1] above 25 µM.
As for `C[C@H](O)[C@H]1C=Cc2c(cn(C)c2C(=O)Nc2ccc(F)c(C(F)F)c2F)S(=O)(=O)N1` [Compound 186, (3R)—N-[3-(difluoromethyl)-2,4-difluoro-phenyl]-3-[(1S)-1-hydroxyethyl]-7-methyl-1,1-dioxo-2,3-dihydropyrrolo[3,4-f]thiazepine-6-carboxamide], in the data set on HBV, the half-maximal effective concentration (EC50) was found to be 0.011 µM. The same molecule returned a CC50 at 4 days in data set [1] above 25 µM.
Taken in the same sequence, the figures for `Cn1cc2c(c1C(=O)Nc1ccc(F)c(C#N)c1)C=CC(C(F)F)NS2(=O)=O` (centres unmarked) [Compound 189, N-(3-cyano-4-fluoro-phenyl)-3-(difluoromethyl)-7-methyl-1,1-dioxo-2,3-dihydropyrrolo[3,4-f]thiazepine-6-carboxamide] were 0.11 µM and above 25 µM.
For the molecule `Cc1cc(NC(=O)c2c3c(cn2C)S(=O)(=O)N[C@@H](C(C)(C)O)CO3)ccc1F` [Compound 195, (3R)—N-(4-fluoro-3-methyl-phenyl)-3-(1-hydroxy-1-methyl-ethyl)-7-methyl-1,1-dioxo-3,4-dihydro-2H-pyrrolo[3,4-b][1,4,5]oxathiazepine-6-carboxamide], the EC50 in the data set with HBV was 0.007 µM. This molecule yielded a CC50 at 4 days in data set [1] above 25 µM.
Taken in the same sequence, the figures for `Cn1cc2c(c1C(=O)Nc1ccc(F)c(F)c1)OC[C@@H](C1(O)CC1)NS2(=O)=O` [Compound 196, (3S)—N-(3,4-difluorophenyl)-3-(1-hydroxycyclopropyl)-7-methyl-1,1-dioxo-3,4-dihydro-2H-pyrrolo[3,4-b][1,4,5]oxathiazepine-6-carboxamide] were 0.065 µM and above 25 µM.
Regarding `Cn1cc2c(c1C(=O)Nc1ccc(F)c(F)c1)OCC(C)(Cc1ccc(Cl)nc1)NS2(=O)=O` (centres unmarked) [Compound 197, 3-[(6-chloro-3-pyridyl)methyl]-N-(3,4-difluorophenyl)-3,7-dimethyl-1,1-dioxo-2,4-dihydropyrrolo[3,4-b][1,4,5]oxathiazepine-6-carboxamide], in the data set on HBV, the EC50 stood at 0.011 µM. This molecule gave a CC50 at 4 days in data set [1] above 25 µM.
